Measured values: the supplement of paper PMC10307832

Tests used:
Test in all cases: relative viability (nuclei count vs DMSO), 5 days (fraction); higher = more cells survive
NCI-H1355 = tested on: NCI-H1355
Outline: (§1)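 Medians of duplicate plates are given as relative viability. That measure is the nuclei count in treated wells divided by the count in vehicle wells. Counts were taken on 4× images of lung cancer cell lines in 1536-well plates, 5 days after pin-tool dosing the day after seeding with one drug alone or a fixed anchor-drug dose plus five library-drug doses (not always all listed) in √10 steps.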

CAL-12T = tested on: CAL-12T
Outline: as §1

LU99A = tested on: LU99A
Outline: as §1

NCI-H2023 = tested on: NCI-H2023
Outline: as §1

NCI-H1437 = tested on: NCI-H1437
Outline: as §1

NCI-H1651 = tested on: NCI-H1651
Outline: as §1

NCI-H441 = tested on: NCI-H441
Outline: as §1

NCI-H1563 = tested on: NCI-H1563
Outline: as §1

NCI-H460 = tested on: NCI-H460
Outline: as §1

HCC-366 = tested on: HCC-366
Outline: as §1

NCI-H1755 = tested on: NCI-H1755
Outline: as §1

`CC1(C)CCC(c2ccc(Cl)cc2)=C(CN2CCN(c3ccc(C(=O)NS(=O)(=O)c4ccc(N[C@H](CCN5CCOCC5)CSc5ccccc5)c(S(=O)(=O)C(F)(F)F)c4)cc3)CC2)C1` [Navitoclax] + Cc1nc(NC(=O)N2CCC[C@H]2C(N)=O)sc1-c1ccnc(C(C)(C)C(F)(F)F)c1 [Alpelisib] (partner 2 µM) showed a relative viability (NCI-H1355; first compound 0.05 µM) of 0.846, a relative viability (NCI-H1355; first compound 0.1581 µM) of 0.74 and a relative viability (NCI-H1355; first compound 0.5 µM) of 0.782. For the same molecule, the relative viability (CAL-12T; first compound 0.005 µM) was 1.08, the relative viability (CAL-12T; first compound 0.01581 µM) was 1.28 and the relative viability (CAL-12T; first compound 0.05 µM) was 1.31. The relative viability (CAL-12T; first compound 0.1581 µM) was 1.25, the relative viability (CAL-12T; first compound 0.5 µM) was 1.11 and the relative viability (LU99A; first compound 0.005 µM) was 0.5. The relative viability (LU99A; first compound 0.01581 µM) was 0.573, the relative viability (LU99A; first compound 0.05 µM) was 0.406 and the relative viability (LU99A; first compound 0.1581 µM) was 0.526. For the same molecule, the relative viability (LU99A; first compound 0.5 µM) was 0.473, the relative viability (NCI-H2023; first compound 0.005 µM) was 0.581 and the relative viability (NCI-H2023; first compound 0.01581 µM) was 0.696. The relative viability (NCI-H2023; first compound 0.05 µM) was 0.586, the relative viability (NCI-H2023; first compound 0.1581 µM) was 0.616 and the relative viability (NCI-H2023; first compound 0.5 µM) was 0.625. It also gave a relative viability (NCI-H1437; first compound 0.005 µM) of 0.885, a relative viability (NCI-H1437; first compound 0.01581 µM) of 1.04 and a relative viability (NCI-H1437; first compound 0.05 µM) of 0.98. It also gave a relative viability (NCI-H1437; first compound 0.1581 µM) of 1.05, a relative viability (NCI-H1437; first compound 0.5 µM) of 0.871 and a relative viability (NCI-H1651; first compound 0.005 µM) of 0.929. It also gave a relative viability (NCI-H1651; first compound 0.01581 µM) of 0.899, a relative viability (NCI-H1651; first compound 0.1581 µM) of 1 and a relative viability (NCI-H1651; first compound 0.5 µM) of 0.946. It also gave a relative viability (NCI-H441; first compound 0.005 µM) of 0.654, a relative viability (NCI-H441; first compound 0.01581 µM) of 0.901 and a relative viability (NCI-H441; first compound 0.05 µM) of 0.852. It also gave a relative viability (NCI-H441; first compound 0.1581 µM) of 0.743, a relative viability (NCI-H441; first compound 0.5 µM) of 0.63 and a relative viability (NCI-H1563; first compound 0.005 µM) of 0.947. It also gave a relative viability (NCI-H1563; first compound 0.01581 µM) of 1.03, a relative viability (NCI-H1563; first compound 0.05 µM) of 0.989 and a relative viability (NCI-H1563; first compound 0.1581 µM) of 0.981. It also gave a relative viability (NCI-H1563; first compound 0.5 µM) of 1.13, a relative viability (NCI-H460; first compound 0.005 µM) of 0.5 and a relative viability (NCI-H460; first compound 0.01581 µM) of 0.533. It also gave a relative viability (NCI-H460; first compound 0.05 µM) of 0.639, a relative viability (NCI-H460; first compound 0.1581 µM) of 0.511 and a relative viability (NCI-H460; first compound 0.5 µM) of 0.46. For the same molecule, the relative viability (HCC-366; first compound 0.005 µM) was 0.391, the relative viability (HCC-366; first compound 0.01581 µM) was 0.588 and the relative viability (HCC-366; first compound 0.05 µM) was 0.132. For the same molecule, the relative viability (HCC-366; first compound 0.1581 µM) was 0.338, the relative viability (HCC-366; first compound 0.5 µM) was 0.361 and the relative viability (NCI-H1755; first compound 0.005 µM) was 0.903. For the same molecule, the relative viability (NCI-H1755; first compound 0.01581 µM) was 1, the relative viability (NCI-H1755; first compound 0.05 µM) was 0.906 and the relative viability (NCI-H1755; first compound 0.1581 µM) was 0.904. It also gave a relative viability (NCI-H1755; first compound 0.5 µM) of 0.947.
